Common to all, as to experiment: ≥ marks a high value that may be exact or a test limit, other limits are often not marked, values filed in µg/mL are converted to µM
The subject of experiment [1] is Escherichia coli ATCC 25922.
The subject of experiment [2] is Staphylococcus aureus ATCC 25923.
Experiment [3] has as its system Pseudomonas aeruginosa ATCC 27853.
The test system of the next experiment is Escherichia coli.
In another experiment the test system is Staphylococcus aureus.

In brackets after ≈: the same amount, converted by molar mass. Several values for one entry are separate records, joined by “and”; a condition that tells them apart may be missing. Identical values can stand only once.

By MIC is commonly meant the lowest concentration found to suppress growth. Low readings indicate a more susceptible organism, high ones a less susceptible organism. With `CC(C)[C@H](NC(=O)[C@H](CC(=O)O)NC(=O)[C@H](CO)NC(=O)[C@H](CCCCN)NC(=O)CNC(=O)[C@H](CO)NC(=O)[C@H](CO)NC(=O)[C@H](Cc1cnc[nH]1)NC(=O)[C@H](CCC(N)=O)NC(=O)[C@@H](N)CCC(=O)O)C(N)=O` [EQHSSGKSDV], the MIC in experiment [1], in experiment [2] and in experiment [3] was more than 100 µM in each case. Turning to `CC[C@H](C)[C@H](NC(=O)[C@H](CCSC)NC(=O)[C@H](CCCN=C(N)N)NC(=O)CNC(=O)[C@H](C)NC(=O)[C@H](Cc1cnc[nH]1)NC(=O)[C@H](Cc1ccccc1)NC(=O)[C@H](CC(C)C)NC(=O)CNC(=O)[C@H](CCCCN)NC(=O)[C@@H](NC(=O)[C@@H](NC(=O)[C@H](Cc1cnc[nH]1)NC(=O)[C@H](Cc1ccccc1)NC(=O)[C@H](Cc1ccccc1)NC(=O)[C@@H](N)Cc1ccccc1)[C@@H](C)CC)[C@@H](C)CC)C(=O)N[C@@H](Cc1cnc[nH]1)C(=O)NCC(=O)N[C@@H](CC(C)C)C(=O)N[C@H](C(=O)O)C(C)C` [FFFHIIKGLFHAGRMIHGLV], the MIC in experiment [3] was found to be 32 µM (≈ 74.9 µg/mL). Consider `CC[C@H](C)[C@H](NC(=O)[C@H](CCCCN)NC(=O)[C@@H]1CCCN1C(=O)[C@H](CC(C)C)NC(=O)[C@H](Cc1ccccc1)NC(=O)[C@H](CC(N)=O)NC(=O)[C@H](C)NC(=O)[C@H](C)NC(=O)[C@@H]1CSSC[C@H](NC(=O)[C@H](CC(C)C)NC(=O)CNC(=O)[C@H](C)NC(=O)[C@H](CC(C)C)NC(=O)[C@H](CC(C)C)NC(=O)[C@@H]2CCCN2C(=O)[C@H](CC(C)C)NC(=O)[C@@H](N)Cc2ccccc2)C(=O)N[C@@H](CCCCN)C(=O)N[C@@H]([C@@H](C)CC)C(=O)N[C@@H]([C@@H](C)O)C(=O)N[C@@H](CCCN=C(N)N)C(=O)N[C@@H](CCCCN)C(=O)N1)C(=O)N[C@@H](Cc1ccccc1)C(=O)O` [FLPLLAGLCKITRKCAANFLPKIF], for which the MIC against Escherichia coli was 7 µM (≈ 18.7 µg/mL); against Staphylococcus aureus, 1.5 µM (≈ 4.01 µg/mL). For the compound `CC[C@H](C)[C@H](NC(=O)[C@H](CC(C)C)NC(=O)[C@H](C)NC(=O)[C@H](Cc1ccccc1)NC(=O)[C@H](Cc1ccccc1)NC(=O)CN)C(=O)N[C@@H](C)C(=O)N[C@@H](CCCCN)C(=O)N[C@H](C(=O)N[C@H](C(=O)N[C@@H](CO)C(=O)N[C@@H](CO)C(=O)N1CCC[C@H]1C(=O)N[C@@H](CC(C)C)C(=O)N[C@@H](Cc1ccccc1)C(=O)N[C@@H](CCCCN)C(=O)N[C@H](C(=O)N[C@@H](CC(C)C)C(N)=O)[C@@H](C)O)[C@@H](C)CC)[C@@H](C)CC` [GFFALIAKIISSPLFKTL], the minimal inhibitory concentration (MIC) against Escherichia coli is 20.3 µM (≈ 40 µg/mL). In the case of `CC[C@H](C)[C@H](NC(=O)[C@H](CO)NC(=O)[C@H](C)NC(=O)[C@H](CC(C)C)NC(=O)CNC(=O)[C@H](C)NC(=O)[C@H](CCCCN)NC(=O)[C@H](C)NC(=O)[C@H](Cc1ccccc1)NC(=O)[C@H](CCCCN)NC(=O)[C@H](CCCCN)NC(=O)[C@H](CC(C)C)NC(=O)CNC(=O)[C@H](CCC(=O)O)NC(=O)[C@H](C)NC(=O)[C@H](C)NC(=O)[C@@H](NC(=O)[C@@H](NC(=O)[C@H](Cc1c[nH]c2ccccc12)NC(=O)[C@H](Cc1ccccc1)NC(=O)CN)[C@@H](C)O)[C@@H](C)O)C(=O)N[C@@H](CC(C)C)C(=O)N[C@@H](CC(N)=O)C(=O)N1CCC[C@H]1C(=O)N[C@@H](CCCCN)C(=O)O` [GFWTTAAEGLKKFAKAGLASILNPK], the minimum inhibitory concentration (MIC) against Escherichia coli was 80 µM (≈ 210 µg/mL); against Staphylococcus aureus it was more than 80 µM. Turning to `CC[C@H](C)[C@H](NC(=O)CN)C(=O)N[C@@H](CCCN=C(N)N)C(=O)N[C@@H](CC(=O)O)C(=O)N[C@H](C(=O)N[C@@H](CC(C)C)C(=O)N[C@@H](CCCCN)C(=O)NCC(=O)N[C@@H](C)C(=O)N[C@@H](C)C(=O)N[C@@H](CCCCN)C(=O)N[C@@H](C)C(=O)N[C@@H](Cc1ccccc1)C(=O)N[C@H](C(=O)N[C@@H](CCCCN)C(=O)N[C@H](C(=O)N[C@H](C(=O)N[C@@H](C)C(=O)NCC(=O)N[C@@H](Cc1cnc[nH]1)C(=O)N[C@H](C(=O)N[C@@H](C)C(=O)N[C@@H](CC(N)=O)C(N)=O)[C@@H](C)CC)C(C)C)[C@@H](C)O)C(C)C)C(C)C` [GIRDVLKGAAKAFVKTVAGHIAN], in experiment [1], the MIC was determined as 4 µM (≈ 9.34 µg/mL). Regarding `CC[C@H](C)[C@H](NC(=O)[C@H](CCCCN)NC(=O)[C@H](CCCCN)NC(=O)[C@@H](NC(=O)[C@@H](NC(=O)[C@H](CC(=O)O)NC(=O)[C@H](Cc1ccccc1)NC(=O)[C@H](CC(C)C)NC(=O)CN)[C@@H](C)CC)[C@@H](C)CC)C(=O)N[C@@H](Cc1c[nH]c2ccccc12)C(=O)N[C@@H](CCC(=O)O)C(=O)N[C@@H](CO)C(=O)N[C@@H](Cc1ccccc1)C(N)=O` [GLFDIIKKIWESF], the MIC in experiment [1] and in experiment [3] was more than 125 µM in each case.

`CC(C)C[C@H](NC(=O)[C@H](CC(C)C)NC(=O)[C@@H](NC(=O)[C@H](CCCCN)NC(=O)[C@H](C)NC(=O)[C@H](CCCN=C(N)N)NC(=O)[C@H](CCCCN)NC(=O)[C@H](CC(C)C)NC(=O)[C@H](CC(C)C)NC(=O)CN)[C@@H](C)O)C(N)=O` [GLLKRAKTLL]: the MIC in experiment [1] and in experiment [2] was more than 36.9 µM in each case. `CC[C@H](C)[C@H](NC(=O)[C@H](CCCN=C(N)N)NC(=O)[C@H](CO)NC(=O)[C@H](CC(C)C)NC(=O)[C@H](CC(C)C)NC(=O)CN)C(=O)N[C@@H](CCCCN)C(=O)N[C@H](C(=O)N[C@@H](CC(C)C)C(=O)N[C@@H](CC(C)C)C(N)=O)[C@@H](C)O` [GLLSRIKTLL] displayed an MIC in experiment [1] of 100 µM (≈ 111 µg/mL). On the same count and under the same terms, the same measure for `CC[C@H](C)[C@H](NC(=O)[C@H](C)NC(=O)CNC(=O)[C@H](C)NC(=O)[C@H](CCCCN)NC(=O)[C@H](CO)NC(=O)[C@H](C)NC(=O)[C@H](CCSC)NC(=O)CN)C(=O)N[C@@H](C)C(=O)NCC(=O)N[C@@H](CCCCN)C(=O)N[C@H](C(=O)N[C@@H](C)C(=O)N[C@@H](CCCCN)C(=O)N[C@H](C(=O)N[C@@H](C)C(=O)N[C@@H](Cc1c[nH]c2ccccc12)C(=O)N[C@@H](CCCCN)C(=O)N[C@@H](C)C(=O)N[C@@H](CC(C)C)C(N)=O)C(C)C)[C@@H](C)CC` [GMASKAGAIAGKIAKVAWKAL]: 8.87 µM (≈ 18.1 µg/mL); for `CC[C@H](C)[C@H](N)C(=O)N[C@H](C(=O)N[C@@H](CCCCN)C(=O)N[C@@H](CCCCN)C(=O)N[C@@H](Cc1ccccc1)C(=O)N[C@@H](CC(C)C)C(=O)N[C@@H](Cc1cnc[nH]1)C(=O)N[C@@H](CO)C(=O)N[C@H](C(=O)N[C@@H](Cc1c[nH]c2ccccc12)C(=O)N[C@@H](CCCCN)C(=O)N[C@@H](Cc1ccccc1)C(=O)NCC(=O)N[C@@H](CCCCN)C(=O)N[C@@H](C)C(=O)N[C@@H](Cc1ccccc1)C(=O)N[C@H](C(=O)NCC(=O)N[C@@H](CCC(=O)O)C(=O)N[C@H](C(=O)N[C@@H](CCSC)C(=O)N[C@@H](CC(N)=O)C(=O)N[C@H](C(=O)O)[C@@H](C)CC)[C@@H](C)CC)C(C)C)[C@@H](C)CC)[C@@H](C)CC` [IIKKFLHSIWKFGKAFVGEIMNI]: 2 µM (≈ 5.44 µg/mL).

`CC[C@H](C)[C@H](NC(=O)[C@H](Cc1ccccc1)NC(=O)[C@H](CCCCN)NC(=O)[C@H](CC(C)C)NC(=O)[C@H](CC(C)C)NC(=O)[C@@H](N)CCCCN)C(=O)N[C@@H](CCCCN)C(=O)N[C@H](C(=O)N[C@@H](CC(C)C)C(=O)N[C@@H](CC(C)C)C(N)=O)[C@@H](C)O` [KLLKFIKTLL]: the minimal inhibitory concentration (MIC) in experiment [1] came to 2.47 µM (≈ 3 µg/mL); in experiment [2], 5.75 µM (≈ 6.99 µg/mL). In the case of `CC[C@H](C)[C@H](NC(=O)CNC(=O)[C@H](CO)NC(=O)[C@H](CCCN=C(N)N)NC(=O)[C@@H](NC(=O)CNC(=O)[C@H](Cc1c[nH]c2ccccc12)NC(=O)[C@@H](N)CC(C)C)[C@@H](C)O)C(=O)N[C@@H](CCC(N)=O)C(=O)N1CCC[C@H]1C(N)=O` [LWGTRSGIQP], the MIC in experiment [1], in experiment [2] and in experiment [3] was more than 100 µM throughout. On to `CC[C@H](C)[C@H](NC(=O)[C@H](Cc1cnc[nH]1)NC(=O)[C@H](CCCN=C(N)N)NC(=O)[C@H](Cc1c[nH]c2ccccc12)NC(=O)[C@@H](NC(=O)[C@H](CCCN=C(N)N)NC(=O)[C@H](CCCCN)NC(=O)[C@H](C)NC(=O)CNC(=O)[C@H](CCCN=C(N)N)NC(=O)[C@H](CCSC)NC(=O)[C@H](C)NC(=O)[C@@H](N)CC(N)=O)C(C)C)C(N)=O` [NAMRGAKRVWRHI], for which, in experiment [1], the MIC was 44.3 µM and 62.7 µM. `CC(C)[C@H](NC(=O)[C@H](C)NC(=O)[C@@H](N)CCC(N)=O)C(=O)N[C@@H](CCC(=O)O)C(=O)N[C@@H](C)C(=O)N[C@@H](CCC(N)=O)C(=O)N[C@@H](CCCCN)C(=O)O` [QAVEAQK]: the minimal inhibitory concentration (MIC) in experiment [1] came to 1620 µM (≈ 1250 µg/mL); in experiment [2] it was 809 µM (≈ 625 µg/mL). Take `CC(C)[C@H](N)C(=O)N[C@H]1CSSC[C@@H](C(=O)N[C@H](C(=O)NCC(=O)N[C@@H](CCCN=C(N)N)C(=O)O)C(C)C)NC(=O)[C@H](C(C)C)NC(=O)[C@@H]2CSSC[C@H](NC(=O)[C@H](Cc3ccc(O)cc3)NC1=O)C(=O)N[C@@H](CCCN=C(N)N)C(=O)N[C@@H](CCCN=C(N)N)C(=O)N[C@@H](CCCN=C(N)N)C(=O)N[C@@H](Cc1ccccc1)C(=O)N2` [VCYCRRRFCVCVGR]: the MIC with Escherichia coli worked out at 0.349 µM (≈ 0.599 µg/mL). In experiment [1], `CC(C)C[C@H](NC(=O)[C@H](Cc1ccccc1)NC(=O)[C@@H]1CCCN1C(=O)[C@H](Cc1c[nH]c2ccccc12)NC(=O)[C@H](Cc1ccc(O)cc1)NC(=O)[C@H](Cc1ccc(O)cc1)NC(=O)[C@@H]1CCCN1C(=O)[C@H](Cc1ccccc1)NC(=O)[C@H](CCCN=C(N)N)NC(=O)[C@H](CCCN=C(N)N)NC(=O)[C@@H](N)C(C)C)C(=O)N[C@@H](CCCN=C(N)N)C(=O)N[C@@H](CCCN=C(N)N)C(N)=O` [VRRFPYYWPFLRR] came in with an MIC of 32 µM (≈ 59.4 µg/mL). This lies in the double-digit micromolar range.

`NC(=O)[C@H](Cc1c[nH]c2ccccc12)NC(=O)[C@H](CCCN=C(N)N)NC(=O)[C@H](CCCN=C(N)N)NC(=O)[C@@H](N)Cc1c[nH]c2ccccc12` [WRRW]: the results for the minimal inhibitory concentration (MIC) in experiment [1] and in experiment [2] were more than 285 µM and 285 µM (≈ 200 µg/mL), respectively.

Turning to `NC(=O)[C@H](Cc1ccc(O)cc1)NC(=O)[C@H](CCCN=C(N)N)NC(=O)[C@H](Cc1c[nH]c2ccccc12)NC(=O)[C@H](CCCN=C(N)N)NC(=O)[C@@H](N)Cc1c[nH]c2ccccc12` [WRWRY], the MIC in experiment [1] is 115 µM (≈ 99.9 µg/mL); in experiment [2] it was 57.7 µM (≈ 49.9 µg/mL).

The values are drawn from DBAASP.
